# Measured values published in patent US12377119B2, “Natural killer cells” (IMPERIAL COLLEGE INNOVATIONS LIMITED, priority 2018, dated 2025).
# “Also recorded” adds a separate entry of the source.
# Legend:
# REV-ERBα = target: T1, REV-ERBα (Homo sapiens, UniProt P20393); assay: Dual-luciferase Bmal-luc reporter assay in HEK293T cells transfected with REV-ERBα; type: cell-based; details: 10 μM
# T1 construct: expressed in transfected cells; host or cells: HEK293T
# T1 sequence (P20393 1-614): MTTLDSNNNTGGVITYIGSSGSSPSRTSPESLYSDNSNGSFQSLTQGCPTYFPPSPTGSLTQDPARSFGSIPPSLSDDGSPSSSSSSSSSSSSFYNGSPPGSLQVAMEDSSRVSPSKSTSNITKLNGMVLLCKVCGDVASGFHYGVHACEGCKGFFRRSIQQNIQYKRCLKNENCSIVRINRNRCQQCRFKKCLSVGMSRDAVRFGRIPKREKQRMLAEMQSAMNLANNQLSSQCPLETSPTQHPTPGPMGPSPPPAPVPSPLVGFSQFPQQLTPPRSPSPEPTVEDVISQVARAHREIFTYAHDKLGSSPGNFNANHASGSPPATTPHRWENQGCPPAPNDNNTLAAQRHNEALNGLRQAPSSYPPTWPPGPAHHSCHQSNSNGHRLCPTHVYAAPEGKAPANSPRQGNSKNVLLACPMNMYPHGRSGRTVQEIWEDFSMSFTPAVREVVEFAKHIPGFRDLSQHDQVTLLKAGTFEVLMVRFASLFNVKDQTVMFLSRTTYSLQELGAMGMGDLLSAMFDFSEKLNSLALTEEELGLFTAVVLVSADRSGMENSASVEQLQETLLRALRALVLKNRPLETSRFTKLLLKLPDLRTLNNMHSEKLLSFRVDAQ
# Protocol: HEK293T cells were defrosted and maintained in DMEM supplemented with 10% FCS and 1% P/S at 37° C. and 5% CO2. Cells were plated in a 24-well plate (7·10^4 cells/well in 0.5 mL of DMEM+10% FCS). 24 h after seeding, cells were transfected with 100 ng of Bmal-luc, 10 ng of pRL-CMV Renilla as an internal control and 10 ng of REV-ERBα or the empty vector pcDNA3 as a control. All conditions were equalled to a total of 400 ng of DNA by using BSM. In order to prepare transfection samples, calculated amounts of DNA needed for each condition were prepared in Opti-MEM and Fugene was added in a 5:2 Fugene:DNA ratio. Mixtures were vortexed to assure homogeneity and left to incubate for 15 min at rt. Afterwards, each DNA mix was transferred into the 24-well plate containing the pre-seeded cells, with each condition repeated by triplicate. 5 h after transfection, cells were treated with compounds 2-12, AG1-AG5 or DMSO as vehicle. Solution of the compounds in DMEM were prepared at a double concentration than the final desired one, and 0.5 mL of these solutions were added to each well. 24 h after transfection, cells were lysed and luciferase activity was measured using Dual-Luciferase Reporter Assay System E2920 (Promega). To perform the experiment, cells were lysed by adding 50 μL of passive lysis buffer (PLB) (1:5 dilution) to each well and gently stirring for 30 min. Each cell lysate was transferred to a 96-well plate. 50 μL of Dual-Glo reagent were dispensed into each well, tapped gently to mix and incubated for 10 min. Luminescence of firefly luciferase was measured using a Tecan VICTOR Light Luminescent counter equipment. Then, 50 μL of Stop&Glo reagent were dispensed to quench firefly activity and activate Renilla luciferase, incubated for 10 min and measured. Firefly activity was normalized to Renilla luciferase activity. Results were analysed using Welch's corrected parametric t-test.
# (§1) The method of Example 2 was repeated using Compounds 70 to 72 (generated as described in Example 1). Compounds 4, 7 and 11 (tested in Example 2) were used as a positive control for REV-ERB inhibitory activity, agonist compound AG2 (also tested in Example 2) and DMSO were also tested as comparators.
# The method of Example 2 was repeated using Compounds 64 to 66, 69 and 70 to 73 (generated as described in Example 1). Once again, Compounds 4, 7 and 11 (tested in Example 2) were used as a positive control for REV-ERB inhibitory activity, agonist compound AG2 (also tested in Example 2) and DMSO were also tested as comparators.
# as §1, with “16” for “70”, “19, 27, 28 and 44” for “72”, “1). Once again,” for “1).”
# NK cells = NK cells development assay (Lin− bone marrow cells co-cultured with OP9 stromal cells, flow cytometry); type: cell-based, mouse
# Protocol: Mice. All mice used in this study were wild type on a C57BL/6 background, between six and twelve weeks old. All animal husbandry and experimental procedures were performed according to UK Home Office regulations and institute guidelines.
# OP9 cell line and cell culture. OP9 is a stromal cell line from mouse bone marrow known to support lymphocyte differentiation of hematopoietic progenitors when co-culturing with them. OP9-GFP cells were cultured in Iscove's Modified Dulbecco's Medium (IMDM) (Sigma-Aldrich) supplemented with 20% Fetal Bovine Serum (FBS) and 1% Penicillin/[…] (P/S). They were split into 24-well plates with 2500 cells per well two days before transferring Lin− cells onto them. Cells were kept in a 5% CO2 humidified atmosphere at 37 QC. Lineage negative cells isolation from bone marrow. Mouse leg and hip bones were crushed in Phosphate Buffered Saline (PBS) with 2% FBS to release bone marrow cells. Cell suspension was filtered through a […] strainer, topped up to 40 mL with PBS+2% FBS and centrifuged at 500×g for 4 minutes. Cells were resuspended in 2 mL PBS+2% FBS and stained with phycoerythrin (PE)-conjugated cocktail (20 μL anti-B220 (RA3/6B2), 20 μL anti-CD2 (RM2-5), 20 μL anti-Ter119 (TER119), 20 μL anti-NK1.1 (PK136), 5 μL anti-CD11b (M1/70) and 5 μL Gr1 (RB6-8C5) antibodies (all from eBioscience) for 5 minutes at 4° C. Then, cells were washed, centrifuged and incubated with anti-PE Microbeads (Miltenyi) for 15 minutes at 4° C. Next, cells were washed with PBS and passed through LD column (Miltenyi), enabling the negative selection of unstained Lin− cells that flowed through the column. 50 μL of cells were taken to check the purity after depletion using flow cytometry. In vitro NK cell development from lineage negative cells. Lin− cells were plated in 24-well plates with 5×10^5 cells in 1 mL of Dulbecco's Modified Eagle Medium (DMEM) (Sigma-Aldrich) supplemented with 10% embryonic stem cell-qualified FBS (ES-FBS), 1% P/S, 50 μM β-Mercaptoethanol (β-ME), 10 ng/ml Flt3-ligand (Flt3L) (R&D Systems), 10 ng/mL IL-7 (R&D Systems) and 100 ng/mL stem cell factor (SCF) (R&D Systems) per well and cultured for 2 days. Cells were transferred for co-culture with OP9-GFP stromal cells in 24-well plates with 3×10^4 cells in 1 mL of Alpha MEM (Sigma-Aldrich) supplemented with 20% ES-FBS, 1% P/S, 50 μM β-ME and 10 ng/mL IL-15 (R&D Systems) per well and cultured for […]. Compounds were added on day 2, at the same time as cells were transferred together with OP9. Supernatant was removed on day 5, and new media was added with compound. Cells were kept in a 5% CO2 humidified atmosphere at 37° C.
# Flow cytometry. After being cultured for 7 days, cells were harvested, filtered through 40 μm strainers to remove OP9 cells and washed with PBS. After centrifuging at 500×g for 5 minutes at 4° C., they were stained with appropriate fluorochrome conjugated antibodies with 1:300 dilution in 100 μL of fluorescent activated cell sorting (FACS) buffer (PBS with 1% BSA) for 15 minutes at 4° C. in the dark. Antibodies include CD3(e450), NK1.1(APC), NKp46(Percp e710) and PI, all of which are anti-mouse and from eBioscience. Cells were then washed in 1 ml FACS buffer, centrifuged and resuspended in 300 μL FACS buffer. Compensation was set up using Anti-Mouse Ig, k and Anti-Rat/Hamster Ig, k Compensation Particles Set (BDTM Combead). Flow cytometry analysis was carried out using BD LSRFortessa™ cell analyser (Becton Dickinson Bioscience) and data analysis was performed using FlowJo.
# The method of Example 7 was repeated using 5 μM of Compounds 7 and 11, and 5 and 10 μM of Compound 72.
# [1] = FIG. 3, three independent experiments in triplicate, comparison with SR8278
# [2] = FIG. 7, three independent experiments in triplicate
# [3] = 5 μM, FIG. 10, compared with SR8278
# [4] = FIG. 10 legend, concentration not stated there (5 μM for 7 and 11, 5 and 10 μM for 72), compared with SR8278 and AG2
# [5] = FIG. 4, two independent experiments in triplicate, comparison with SR8278
# [6] = 10 μM, FIG. 9, compared with SR8278
Effect on REV-ERBα activity (Bmal-luc luciferase expression) (REV-ERBα; [2]),Effect on REV-ERBα activity (Bmal-luc luciferase expression) (REV-ERBα; [5]),Structure (SMILES),Effect on REV-ERBα activity (Bmal-luc luciferase expression) (REV-ERBα; [1]),Total number of NK cells (NK cells; [3]),"Total number of NK cells (NK cells; 10 μM, FIG. 10, compared with SR8278)",Total number of NK cells (NK cells; [4]),Total number of NK cells (NK cells; [6])
–,–,"CCOC(=O)C1Cc2ccccc2CN1C(=O)c1scnc1C (racemic) [Compound 12, Ethyl 2-(4-methylthiazole-5-carbonyl)-1,2,3,4-tetrahydrolsoquinoline-3-carboxylate]",significant increase in luciferase expression compared with SR8278; also recorded: significant antagonistic activity,–,–,–,–
–,–,"CCOC(=O)C1Cc2ccccc2CN1C(=O)c1ccno1 (racemic) [Compound 8, Ethyl 2-(isoxazole-5-carbonyl)-1,2,3,4-tetrahydrolsoquinoline3-carboxylate]",significant increase in luciferase expression compared with SR8278; also recorded: significant antagonistic activity,–,–,–,–
–,–,CCOC(=O)C1Cc2ccccc2CN1C(=O)c1cccc2ccccc12 (centres unmarked) [AG1],agonists,–,–,–,–
agonist,–,CSc1ccc(C(=O)N2Cc3ccccc3CC2COc2ccc(OC(C)(C)C)cc2)s1 (centres unmarked) [AG5],agonists,–,–,–,–
significant antagonistic activity,significant antagonistic activity,"CCOC(=O)C1Cc2ccccc2CN1C(=O)c1ocnc1C (racemic) [Compound 11, Ethyl 2-(4-methyloxazole-5-carbonyl)-1,2,3,4-tetrahydrolsoquinoline-3-carboxylate]",significant increase in luciferase expression compared with SR8278; also recorded: significant antagonistic activity,significant increase in the total number of NK cells compared with SR8278,–,significant increase in NK cell number,increase in the total number of NK cells compared with SR8278
significant antagonistic activity,significant antagonistic activity,"CCOC(=O)C1Cc2ccccc2CN1C(=O)c1ccco1 (racemic) [Compound 7, Ethyl 2-(furan-2-carbonyl)-1,2,3,4-tetrahydrolsoquinoline-3-carboxylate]",significant increase in luciferase expression compared with SR8278; also recorded: significant antagonistic activity,significant increase in the total number of NK cells compared with SR8278,–,significant increase in NK cell number,significant increase in NK cell number

Structure (SMILES),Effect on REV-ERBα activity (Bmal-luc luciferase expression) (REV-ERBα; [2]),Effect on REV-ERBα activity (Bmal-luc luciferase expression) (REV-ERBα; [5]),Effect on REV-ERBα activity (Bmal-luc luciferase expression) (REV-ERBα; [1]),Total number of NK cells (NK cells; [3]),"Total number of NK cells (NK cells; 10 μM, FIG. 10, compared with SR8278)",Total number of NK cells (NK cells; [4]),Total number of NK cells (NK cells; [6])
CCOC(=O)C1Cc2ccccc2CN1C(=O)c1cccnc1F (racemic) [Compound 27],Inhibitory effect on REV-ERB was observed; also recorded: significant antagonistic activity,–,–,–,–,–,–
CCOC(=O)C1Cc2ccccc2CN1C(=O)c1ccnc(C)c1 (racemic) [Compound 28],Inhibitory effect on REV-ERB was observed; also recorded: significant antagonistic activity,–,–,–,–,–,–
CCOC(=O)CN(Cc1ccccc1)C(=O)c1ccco1 (racemic) [Compound 72],–,inhibitory effect on REV-ERB greater than that obtained using SR8278; also recorded: significant antagonistic activity,–,significant increase in the total number of NK cells compared with SR8278,significant increase in the total number of NK cells compared with SR8278,significant increase in NK cell number,–
